The record followed here is ChEMBL document CHEMBL1201862, “PubChem BioAssay data set” (2004).

Holding throughout (assay): growth of human tumour cells (NCI), 48 h
The test system of assay [1] is HL-60.
Assay [2] relates to U-251.
Assay [3] has as its system SW-620.
For assay [4], the system named is OVCAR-5.
Assay [5] has as its system KM12.
For assay [6], the system named is LOX IMVI.
The test system of assay [7] is BT-549.
In assay [8] the test system is HCT-15.
The subject of assay [9] is MDA-N.
The subject of assay [10] is UO-31.
In assay [11] the test system is HCT-116.
In assay [12] the test system is ACHN.
Assay [13] deals with NCI-H460.
The subject of assay [14] is SK-MEL-2.
Assay [15] relates to SF-295.
Assay [16] relates to CCRF-CEM.
The test system of assay [17] is A549.
In assay [18] the test system is SF-539.

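Grown in 96-well plates, cells were treated for 48 hours with each compound at five concentrations. Insufficient inhibition: endpoint recorded as highest concentration tested. The concentration for 50% growth inhibition is given as GI50.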 Active and inactive are the calls of the source. No stated cut-off is given here; in the data, active = GI50 up to about 1.1 µM and inactive = higher.

As to `O=C(O)c1nc2ccc(C(F)(F)F)cc2nc1Nc1ccc(Cl)c(Cl)c1`, the GI50 was 5.62 µM (inactive) in [1]; 3.93 µM (inactive) in assay [2]; 8.15 µM (inactive) in [3]; 14.4 µM (inactive) in assay [4]; 6.98 µM (inactive) in [5]; 9.82 µM (inactive) in [6]. For the same compound, the GI50 is 2.62 µM (inactive) in assay [7]; 8.97 µM in assay [8]; 6.73 µM (inactive) in [9]; 4.48 µM (inactive) in [10]; 5.12 µM (inactive) in assay [11]; 7.67 µM (inactive) in assay [12]. For the same compound, the figures for the GI50 in [13], in assay [14] and in assay [15] were 7.41 µM (inactive), 2.31 µM (inactive) and 4.36 µM (inactive), respectively.

Take `CCOC(=O)C1(Cc2ccc3c(c2)CCC3)Cc2cc3c(cc2C1=O)CCC3` (stereo not given): the GI50 in [1] was 2.84 µM (inactive); in assay [2] it was > 78 µM (inactive); in [3], > 85.1 µM (inactive); in assay [4], > 100 µM (inactive); in assay [16], 11.9 µM (inactive); in [5] it was > 50.9 µM (inactive). For the same compound, the GI50 was 44 µM (inactive) in assay [17]; > 71.6 µM (inactive) in assay [6]; 76.7 µM (inactive) in [7]; > 100 µM (inactive) in assay [18]; 58.6 µM in [8]; 41.4 µM (inactive) in assay [9]. In addition, the GI50 is 42.3 µM (inactive) in [10]; 16.7 µM (inactive) in assay [11]; > 69.8 µM (inactive) in assay [12]; 41.9 µM (inactive) in assay [13]; > 100 µM (inactive) in assay [14]; 48.3 µM (inactive) in [15].

For `O=Cc1ccc(OCc2cccc(COc3ccc(/C=N\Nc4ccc([N+](=O)[O-])cc4[N+](=O)[O-])cc3)n2)cc1`, the GI50 in assay [1] was > 100 µM (inactive); in assay [2], 63.5 µM (inactive); in assay [3], > 100 µM (inactive); in assay [4] it was > 100 µM (inactive); in assay [16] it was 55.1 µM (inactive); in assay [5], > 100 µM (inactive). In addition, the GI50 in [17] is > 100 µM (inactive); in [6] it was > 100 µM (inactive); in assay [7], > 100 µM (inactive); in assay [8], more than 100 µM; in assay [9], > 100 µM (inactive); in [10], > 100 µM (inactive). For the same compound, the GI50 in assay [11] was > 100 µM (inactive); in [12], > 100 µM (inactive); in assay [13], > 100 µM (inactive); in assay [14], 89.5 µM (inactive); in assay [15] it was > 100 µM (inactive).

Regarding `c1ccc2c(c1)ccc1nc(-c3ccc4c(c3)OCO4)c3c(c12)CCCC3`, the GI50 in [2] was 7.6 µM (inactive); in assay [3], 29.2 µM (inactive); in [4], 93.5 µM (inactive); in assay [16], 25.9 µM (inactive); in [5], 11.3 µM (inactive); in assay [17], 20.6 µM (inactive). The GI50 in assay [7] is 17 µM (inactive); in [18], 12.5 µM (inactive); in [8] it was 6.07 µM; in assay [9], 37.9 µM (inactive); in [10], 20.9 µM (inactive); in [11] it was 15.8 µM (inactive). The GI50 in assay [12] is 20.8 µM (inactive); in assay [13] it was 11.6 µM (inactive); in assay [14] it was 23.2 µM (inactive); in [15], 12.2 µM (inactive).

Turning to `CC[C@]12C=CCN3CC[C@@]4(c5cc(Br)c(OC)cc5N(C)[C@H]4[C@@](O)(C(=O)N[C@@H](Cc4ccc(O)cc4)C(=O)OC)[C@@H]1O)[C@@H]32`, the GI50 was 26.7 µM (inactive) in assay [1]; 14.6 µM (inactive) in [2]; 32.9 µM (inactive) in assay [3]; 45.5 µM (inactive) in [4]; 21.6 µM (inactive) in [16]; 11.3 µM (inactive) in assay [5]. Further, the GI50 was 25.7 µM (inactive) in [17]; 14.8 µM (inactive) in assay [6]; 20.7 µM (inactive) in assay [7]; 19.7 µM (inactive) in assay [18]; 23.3 µM in assay [8]; 20 µM (inactive) in assay [9]. For the same compound, the GI50 in [10] was 27.2 µM (inactive); in assay [11] it was 34.8 µM (inactive); in assay [12], 27.6 µM (inactive); in assay [13], 18.2 µM (inactive); in assay [14] it was 20.1 µM (inactive); in [15], 19.3 µM (inactive).

As to `NNC(=O)C1(NC(=O)c2ccccc2)C(c2ccccc2)C(c2ccccc2)=NN1c1ccccc1` (stereo not given), the GI50 in assay [2] was 62.1 µM (inactive); in assay [3] it was 46.6 µM (inactive); in assay [4] it was 33 µM (inactive); in [16], 8.99 µM (inactive); in assay [5], 35.1 µM (inactive); in [17], 43.5 µM (inactive). In addition, the GI50 in assay [6] was 23.8 µM (inactive); in assay [7] it was 71.8 µM (inactive); in assay [18], 44.2 µM (inactive); in [8] it was 18.5 µM; in assay [9] it was 24.2 µM (inactive); in assay [10] it was 27.8 µM (inactive). Besides, the GI50 in assay [11] was 37 µM (inactive); in assay [12], 35.5 µM (inactive); in assay [13], 43.8 µM (inactive); in assay [14], 41.5 µM (inactive); in assay [15], 24.5 µM (inactive).

As for `Cc1cccc2[nH]c3c(c(O)cc4[nH]c5cccc(C)c5c(=O)c43)c(=O)c12`, the GI50 in [1] is 3.33 µM (inactive); in [2] it was 3.3 µM (inactive); in assay [3] it was 6.11 µM (inactive); in assay [4], > 10 µM (inactive); in assay [16] it was > 10 µM (inactive); in assay [5] it was 6.87 µM (inactive). Further, the GI50 was > 10 µM (inactive) in assay [17]; 3.65 µM (inactive) in [6]; 3.63 µM (inactive) in [7]; > 10 µM (inactive) in assay [18]; more than 10 µM in assay [8]; > 10 µM (inactive) in [9]. For the same compound, the GI50 was 3.65 µM (inactive) in assay [11]; 5.83 µM (inactive) in [12]; 5.57 µM (inactive) in assay [13]; > 10 µM (inactive) in assay [14]; 7.53 µM (inactive) in assay [15].

With `COc1ccc(/C=C2\CCC(C)C3=C(c4ccc(OC)c(OC)c4)C(C#N)=C(N)OC32)cc1OC` (stereo not given), the GI50 in [1] was 2.63 µM (inactive); in assay [2], 3.58 µM (inactive); in assay [3], 4.29 µM (inactive); in assay [4] it was 2.75 µM (inactive); in assay [16] it was 2.28 µM (inactive); in assay [5] it was 3.3 µM (inactive). Besides, the GI50 in assay [6] was 3.16 µM (inactive); in assay [7] it was 3.51 µM (inactive); in assay [18], 1.55 µM (inactive); in assay [8], 3.33 µM; in assay [9], 3.45 µM (inactive); in assay [10], 2.4 µM (inactive). For the same compound, the GI50 in [11] was 2.82 µM (inactive); in assay [12] it was 3.66 µM (inactive); in assay [13] it was 3.03 µM (inactive); in assay [14] it was 1.97 µM (inactive); in assay [15], 3.43 µM (inactive).
